Source: patent publication US7303889B2, “Ligand for G-protein coupled receptor GPR43 and uses thereof” (Euroscreen S.A., priority 2002, dated 2007)
Where two headings read alike, the source gives them in different places.

Experiments:
[1] = target: T1, human GPR43 (Homo sapiens, UniProt O15552); assay: Accumulation of GTPγ[35S] binding on membranes from CHO-K1 cells expressing human GPR43; assay type: biochemical; parameters: expressed in transfected cells; settings: for activity on GTPγ[35S] binding / order of agonist potency: single concentration of each compound, FIG. 8
T1 sequence (O15552 1-330): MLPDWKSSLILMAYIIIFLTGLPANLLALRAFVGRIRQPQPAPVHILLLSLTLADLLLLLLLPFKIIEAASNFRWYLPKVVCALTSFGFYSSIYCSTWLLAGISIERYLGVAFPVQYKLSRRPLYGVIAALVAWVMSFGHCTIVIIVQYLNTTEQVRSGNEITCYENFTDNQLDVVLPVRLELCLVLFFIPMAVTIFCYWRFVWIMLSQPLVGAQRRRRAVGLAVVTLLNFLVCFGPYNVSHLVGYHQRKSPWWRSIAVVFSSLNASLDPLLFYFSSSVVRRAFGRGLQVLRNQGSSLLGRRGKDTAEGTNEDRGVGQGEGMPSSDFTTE
Method: For GPCRs such as GPR43, a measure of receptor activity is the binding of GTP by cell membranes containing receptors. In the method described by Traynor and Nahorski, 1995, Mol. Pharmacol. 47: 848-854, incorporated herein by reference, one essentially measures G-protein coupling to membranes by detecting the binding of labelled GTP. For GTP binding assays, membranes isolated from cells expressing the receptor are incubated in a buffer containing 20 mM HEPES, pH 7.4, 100 mM NaCl, and 10 mM MgCl2, 80 pM ^35S-GTPγS and 3 μM GDP. The assay mixture is incubated for 60 minutes at 30° C., after which unbound labelled GTP is removed by filtration onto GF/B filters. Bound, labelled GTP is measured by liquid scintillation counting. In order to assay for modulation of propionate-induced GPR43 activity, membranes prepared from cells expressing a GPR43 polypeptide are mixed with propionate, and the GTP binding assay is performed in the presence and absence of a candidate modulator of GPR43 activity. […] In this case, propionate-stimulated GTP binding is used as a standard. […] GTPase activity is measured by incubating the membranes containing a GPR43 polypeptide with γ^32P-GTP. Active GTPase will release the label as inorganic phosphate, which is detected by separation of free inorganic phosphate in a 5% suspension of activated charcoal in 20 mM H3PO4, followed by scintillation counting. Controls include assays using membranes isolated from cells not expressing GPR43 (mock-transfected), in order to exclude possible non-specific effects of the candidate compound.
The activity of acetate was examined in a membrane-based functional test.
The activity of other SCFA and related compounds (alcohols, aldehydes, cetone, di-acids . . . ) was evaluated using a single concentration of each in the membrane-cell based assay.

[2] = target: T1, human GPR43; assay: Structure-activity relationships of SCFAs and related compounds on human GPR43 (FIG. 12); parameters: expressed in transfected cells; settings: compared with corresponding non-substituted active compounds
[3] = tested on: non related human G-protein coupled receptors; assay: GTPγ[35S] binding on ten membrane preparations of CHO-K1 cells expressing non related human GPCRs; assay type: biochemical
[4] = tested on: human polymorphonuclear (PMN) leukocytes; assay: Mobilization of intracellular calcium in human neutrophils (Fura-2); assay type: cell-based; settings: for EC50: FIG. 15 and 16, read-out: EC50 for increase of intracellular calcium
Method: The following experiments were conducted to test whether the human polymorphonuclear (PMN) leukocytes could be activated with acetate and propionate, since the receptor is strongly expressed in peripheral blood cells containing mainly PMNs. Activation was determined by the quantification of the intracellular calcium mobilized from internal pool after activation by acetate and propionate of the cell membrane receptor. PMN were purified from the venous blood of healthy volunteers. Cells were isolated according to established methods. For intracellular calcium measurements, the cells were loaded for 30 min at room temperature with Fura-2AM (Molecular Probes). […] Briefly, neutrophils suspensions (1×10^7 cells/ml) were incubated with 2 μM Fura-2/AM for 30 minutes at 37° C. The cells were then washed free of the extracellular probe, resuspended at 5×10^6 cells/ml and allowed to reequilibrate for 10 minutes at 37° C. Cells were then transferred to the thermostatted cuvette compartment (37° C.) of the fluorometer and the fluorescence monitored (excitation and emission […], 340 and 510 nm respectively).

[5] = tested on: peripheral blood neutrophils; assay: Chemotactic response of neutrophilic granulocytes (48-well chamber); assay type: cell-based, human; settings: for shape of chemotactic dose-response: FIG. 17
Method: Peripheral blood mononuclear cells were purified from buffy coats of healthy volunteers as previously described (Struyf S, De Meester I, Scharpe S, Lenaerts J P, Menten P, Wang J M, Proost P, Van Damme J., Eur J Immunol Apr. 28, 1998; 28 (4):1262-71). For intracellular calcium measurements, the cells were loaded for 30 min at room temperature with Fura-2AM (Molecular Probes). Calcium transients were monitored by a LS50B spectrofluorimeter (Perkin Elmer) as described (Grynkiewicz G, Poenie M, Tsien R Y., J Biol Chem Mar. 25, 1985;260(6):3440-50) at a final cell concentration of 10^6 cells/ml in buffer containing 125 μM probenecid. Chemotaxis was assessed in 48-well chambers using polycarbonate filter membranes with 3 μm (mesh size) (Neuroprobes, Inc.). The results are represented as chemotactic index (FIG. 17).
Freshly isolated peripheral blood neutrophils from healthy donors were tested for their chemotactic response to sodium acetate and propionate.

[6] = target: T1, human GPR43; settings: library at 1-100 μM; confirmed by a dose response curve
Method: (§1) Additional related compounds were tested using the same cells.

[7] = tested on: other GPCRs, such as motilin or histamine H1 receptor; settings: Gqi only or cDNAs for other GPCRs; data not shown
[8] = tested on: human polymorphonuclear (PMN) leukocytes; settings: Naccache et al, Fonteriz et al, Nakao et al; cited from earlier work
[9] = target: T1, human GPR43; assay: Inhibition of forskolin-stimulated adenylate cyclase activity in CHO-K1 cells stably expressing human GPR43; assay type: cell-based; parameters: expressed in transfected cells
Method: as §1
SCFA, ranging from 1 carbon to 4 carbon, were tested on CHO-K1 cells stably expressing the human GPR43 for their ability to inhibit the activity of adenylate cyclase stimulated with forskolin.

[10] = target: T1, human GPR43; assay: Production of inositol phosphates in CHO-K1 cells stably expressing human GPR43; assay type: cell-based; parameters: expressed in transfected cells; settings: PTX-pretreatment prior to stimulation; FIG. 10
[11] = CHO-K1 cells stably expressing human GPR43, FIG. 4

## CC(O)CC(=O)O (racemic) [DL-β-hydroxybutyrate]
[1]
  activity on GTPγ[35S] binding: Inactive
[2]
  activity on human GPR43: is not active

## NCCCC(=O)O [GABA]
[1]
  activity on GTPγ[35S] binding: Inactive

## N[C@@H](CCC(=O)O)C(=O)O [L-glutamate]
[1]
  activity on GTPγ[35S] binding: Inactive
[2]
  activity on human GPR43: abolished the signal

## CC=O [acetaldehyde]
[1]
  activity on GTPγ[35S] binding: Inactive

## CC(=O)O [acetate]
[3]
  stimulation of GTPγ[35S] binding in membranes with non related receptors: not able to stimulate any binding
[4]
  effect of increasing concentration on intracellular calcium: concentration-dependent increase of intracellular calcium
  EC50: 537 µM
[5]
  shape of chemotactic dose-response: classical bell-shaped dose-response curve
[6]
  result of ligand screening: specific activity
[7]
  activation of control cells (inositol phosphates): not activated
[8]
  EC50 for cytoplasmic calcium mobilization in PMN: millimolar
[9]
  decrease of forskolin-stimulated adenylate cyclase activity: 75%
  rank order of potency to inhibit forskolin-stimulated adenylate cyclase: C2 (acetate)≧C3 (propionate)>C4 (butyrate)>>C1 (formate)
[9]; FIG. 5
  observed effect on adenylate cyclase after overnight preincubation with Pertussis Toxin (PTX): totally abolished
[1]; assay buffer containing 120 mM sodium or potassium, FIG. 7
  activation of GTPγ[35S] binding, sodium versus ammonium salt: equipotent
[1]; compared with the cell-based cAMP assay, FIG. 6
  potency on accumulation of GTPγ[35S] binding: comparable to that observed in the cell-based functional assay monitoring cAMP levels
[1]
  order of agonist potency: acetate=propionate>n-butyrate=isobutyrate=n-valerate=caproate>>formate>>pyruvate=acetoacetate
[10]
  PTX sensitivity of the accumulation of total inositol phosphates: non PTX sensitive

## CC(=O)CC(=O)O [acetoacetate]
[1]
  order of agonist potency: acetate=propionate>n-butyrate=isobutyrate=n-valerate=caproate>>formate>>pyruvate=acetoacetate
[2]
  activity on human GPR43: decreased but consistent activity

## CC(C)=O [acetone]
[1]
  activity on GTPγ[35S] binding: Inactive

## CCCC(=O)O [butyrate]
[9]; [11]
  decrease of forskolin-stimulated adenylate cyclase activity: 75%

## CCCCCC(=O)[O-].CCCCCC(=O)[O-].[Ca+2] [caproate]
[1]
  order of agonist potency: acetate=propionate>n-butyrate=isobutyrate=n-valerate=caproate>>formate>>pyruvate=acetoacetate

## O=C(O)CC(O)(CC(=O)O)C(=O)O [citrate]
[1]
  activity on GTPγ[35S] binding: Inactive
[2]
  activity on human GPR43: abolished the signal

## CCO [ethanol]
[1]
  activity on GTPγ[35S] binding: Inactive

## O=CO [formate]
[9]
  decrease of forskolin-stimulated adenylate cyclase activity: 75%
  rank order of potency to inhibit forskolin-stimulated adenylate cyclase: C2 (acetate)≧C3 (propionate)>C4 (butyrate)>>C1 (formate)
[1]; data not shown
  activation of the human receptor (maximal response compared to acetate and propionate): partly activate
[1]
  order of agonist potency: acetate=propionate>n-butyrate=isobutyrate=n-valerate=caproate>>formate>>pyruvate=acetoacetate

## NCC(=O)O [glycine]
[2]
  activity on human GPR43: decreased activity without abolishing it

## CC(C)C(=O)O [isobutyrate]
[1]
  order of agonist potency: acetate=propionate>n-butyrate=isobutyrate=n-valerate=caproate>>formate>>pyruvate=acetoacetate

## O=C(O)CC(=O)O [malonate]
[1]
  activity on GTPγ[35S] binding: Inactive
[2]
  activity on human GPR43: abolished the signal

## CCCCC(=O)O [n-valerate]
[1]
  order of agonist potency: acetate=propionate>n-butyrate=isobutyrate=n-valerate=caproate>>formate>>pyruvate=acetoacetate

## O=C(O)C(=O)O [oxalate]
[1]
  activity on GTPγ[35S] binding: Inactive
[2]
  activity on human GPR43: abolished the signal

## CCC(=O)O [propionate]
[3]; adenosine A1, adrenergic 2C, CRF 1, CCR3, LTB4, M4, neuropeptide FF 2S, opioid 3, 5-HT1A, sst5 receptors
  stimulation of GTPγ[35S] binding in membranes with non related receptors: not able to stimulate any binding
[4]
  effect of increasing concentration on intracellular calcium: concentration-dependent increase of intracellular calcium
[4]; Leukocyte
  EC50: 540 µM
[5]
  shape of chemotactic dose-response: classical bell-shaped dose-response curve
[8]
  EC50 for cytoplasmic calcium mobilization in PMN: millimolar
[9]; [11]
  decrease of forskolin-stimulated adenylate cyclase activity: 75%
[9]; SCFA from 1 carbon to 4 carbon, FIG. 4
  rank order of potency to inhibit forskolin-stimulated adenylate cyclase: C2 (acetate)≧C3 (propionate)>C4 (butyrate)>>C1 (formate)
[1]
  order of agonist potency: acetate=propionate>n-butyrate=isobutyrate=n-valerate=caproate>>formate>>pyruvate=acetoacetate
[10]
  PTX sensitivity of the accumulation of total inositol phosphates: non PTX sensitive

## N[C@@H](CO)C(=O)O [serine]
[2]
  activity on human GPR43: abolished the activity

## O=C(O)CCC(=O)O [succinate]
[1]
  activity on GTPγ[35S] binding: Inactive
[2]
  activity on human GPR43: abolished the signal

## f-met-leu-phe [fMLP]
[5]; on average, data not shown
  maximal chemotactic index relative to SCFA: at least 3 fold
